The text below walks through data of a melting point compilation (Tetko et al.; mined from patent text by program, amines drawn as free bases though some values may be those of a salt).

The melting point is the temperature, or range, at which the solid turns liquid. The compound `CN(C(=O)OC(C)(C)C)C1CC=C(c2c[nH]c3ccc([N+](=O)[O-])cc23)CC1` (centres undefined) showed a melting point of 224 to 226 °C.
Regarding `Cc1c(C(F)(F)F)nc(C(F)(F)F)c(C(=O)O)c1O`, the melting point lay in the range of 155 to 159 °C.
As for `CCOC(=O)c1cc(-c2ccc(OC)cc2)nn(CC=Cc2ccc(Cl)cc2)c1=O`, the figure is 127 to 128 °C; as for `Cc1cc(-c2ccccc2)n2nc(C)c(C#N)c2n1`, 175 to 177 °C.
Next, `COc1ccc(OC)c2[nH]c(-c3ccccc3)nc12`: 226 to 227 °C.
On to `Nc1nc(NCC(c2ccccc2)c2ccccc2)c2ncn(C3OC(CO)C(O)C3O)c2n1` (centres undefined), for which the melting point was 134 to 137 °C.
In turn, `O=C(O)C1Cc2cc(CCNS(=O)(=O)c3ccccc3)ccc2O1` (centres undefined) returned a melting point of 132 to 133 °C.
In the case of `O=C(O)Cc1cc(C(=O)C=Cc2ccc(F)cc2)ccc1O`, the melting point came to 212 °C.
`CCOC(=O)c1ccc(N)c(C(CCNC(=O)OC(C)(C)C)=NOC(C)=O)c1` returned a melting point of 130 to 135 °C.
Turning to `CCOC(=O)c1cc2c([nH]c3ccccc32)c(CNc2ccccc2)n1`, the melting point was 256 to 258 °C.
As for `N#CN1CCN(c2n[nH]c3ccccc23)CC1`, the melting point lay in the range of 120 to 122 °C.
`CN(Cc1ccccc1)c1nc(N2CCOCC2)nc(-n2c(C(F)F)nc3ccccc32)n1`: the melting point lay in the range of 147 to 150 °C.
Next, `CC(C)c1c(Cl)[nH]c(=O)[nH]c1=O`: 250 to 251 °C; `CC/C=C(\C)CNc1cccc(-c2ccnc3c(C(=O)c4cccs4)cnn23)c1`: 132 to 133 °C; `CN1C(=O)Cc2cc(C3=NNC(=O)C4CCC34)ccc21` (centres undefined): 256 to 259 °C.
The compound `CC(C)C(=O)c1[nH]c(C(CC2CCCC2)c2ccc(S(C)(=O)=O)cc2)nc1F` (centres undefined) registered a melting point of 161 to 162 °C.
Next, `CC1Nc2ccc(S(=O)(=O)N(C)C)cc2S(=O)(=O)N1` (centres undefined): 210 to 212 °C; `Cc1ccc(N2CCN(CCC3NC(=O)c4ccccc43)CC2)cc1C` (centres undefined): 167 to 169 °C.
Next, `CC(C)(C)OC(=O)CN1C(=O)C(NC(=O)Nc2cccc(Cl)c2)CC(c2ccccc2)CC1Cc1ccccc1` (centres undefined): 95 to 110 °C; `CCOC(=O)Cc1ccc(NC(=O)C(COc2cccnc2)NS(=O)(=O)c2ccc(F)cc2)cc1` (racemic): 150 to 152 °C.
The compound `COc1ccc(C2CNCc3cc(N)ccc32)cc1OC` (centres undefined) had a melting point of 157 to 159 °C.
Next, `Cc1cc2c(s1)CCCNC2=O`: 119 to 120 °C; `CCOc1ccc(C)c(NCc2ccccc2)c1`: 69 to 71 °C.
Take `O=C1NC2Cc3ccccc3C2O1` (centres undefined): the melting point was 205 to 206 °C.
Next, `c1ccn2c(SCCN3CCNCC3)nnc2c1`: 104 °C; `Nc1cccc2cc(-c3nccs3)[nH]c12`: 173 to 174 °C; `NS(=O)(=O)NC[C@H]1COc2ccc(Cl)cc2O1`: 118 to 119 °C.
Next, `O=C(NCCc1ccn(-c2cc3nc(C(=O)O)c(=O)[nH]c3cc2F)c1)Nc1ccc(C(=O)O)cc1`: more than 300 °C; `CC(C)(C)[Si](C)(C)Oc1ccc2c(c1)oc(=O)c1c3ccc(O[Si](C)(C)C(C)(C)C)cc3sc21`: 142 to 144 °C; `CCn1cc(C(=O)O)c(=O)c2cc(F)c(N3CCC(CN(C)C)C3)c(F)c21` (centres undefined): 204 to 206 °C.
In turn, `COC(=O)[C@H](Cc1ccc(OCC2CCCN(C(=O)OC(C)(C)C)C2)cc1)NC(=O)[C@@H]1CCCN1S(=O)(=O)c1ccc(C)cc1` (some centres undefined) showed a melting point of 82 to 84 °C.
`CCCCCCCCCCCCC(=O)CC` displayed a melting point of 84 to 86 °C.
As to `O=C(O)C(=O)CC(=O)c1cccn1Cc1ccccc1F`, the melting point was 155 to 156 °C.
Next, `N#Cc1ccccc1N1CCN(Cc2cn3cc(Cl)ccc3n2)CC1`: 167 to 169 °C; `CC(C)c1ccc(-c2cnc(-c3cccc(C(=O)O)c3)s2)cc1`: 218 to 220 °C; `O=C(Nc1ccc2ccc(-c3cccc(Br)c3)nc2n1)c1cccc(Br)c1`: 144 to 146 °C.
Next, `COc1ccc(-n2nc(Sc3cc(C)cc(C)c3)c(C)c(C#N)c2=O)cc1`: 175 to 177 °C; `CC(C)(C)C(NC(=O)c1ccc(F)cc1)NC(=NC#N)Nc1cccnc1` (centres undefined): 195 to 196 °C; `CC(C)(C)OC(=O)NCCCCCCC(=O)Nc1ccc(-n2nc(C(F)(F)F)cc2C(F)(F)F)cc1`: 86 to 88 °C.
Next, `O=C1CCCCc2cc(OCc3ccccc3)c(O)cc21`: 127 to 128 °C.
For the compound `CCC1CCCCn2c1nc(-c1ccncn1)cc2=O` (racemic), the melting point was 128 to 130 °C.
`Cc1c(C(=O)Nc2ccc(N(CCO)CCO)c(C#N)c2)cnn1-c1ccc(F)cc1` showed a melting point of 158 to 159 °C.
The compound `Cc1nc2ccc(NC3=NCCN3)c(Br)c2nc1C` displayed a melting point of 252 to 254 °C.
Next, `Oc1ccc(Nc2ncc3ncc(-c4ccccc4O)cc3n2)cc1`: 262 to 264 °C.
As for `O=C(Nc1ccc2[nH]cnc2c1)C(=O)N1CCC(Cc2ccc(F)cc2)CC1`, the melting point is 104 to 110 °C.
As for `CCOC(=O)/C=C/c1ccc(OCOC)c(C)c1OCc1ccc(Cl)cc1Cl`, the figure is 110 to 112 °C.
Consider `Nc1c(Cl)cc(Nc2ncnc3cnc(N[C@H]4CC[C@H](C(=O)O)CC4)nc23)cc1Cl`, for which the melting point worked out at 339 °C.
`CC(=O)OCCn1nc(C)c(-c2ccc3c(c2)NC(=O)CO3)c1-c1ccc(F)cc1` returned a melting point of 160 °C.
Next, `CSc1nc(C)ccc1NC(=O)CCCCCSc1nc2ccccc2s1`: 122 to 123 °C; `N=C(N)c1ccc(C(=O)N2CCCC2CC(=O)NCCC(=O)O)cc1` (centres undefined): more than 250 °C; `Cn1c(-c2ccc(-c3ccccc3)cc2)cnc1[C@H](Cc1ccccn1)N(C=O)c1cc2cc(Br)ccc2o1`: 180 to 182 °C.
Next, `COc1cccc2c1OC(CN1CCC(NC(=O)Nc3ccccc3)CC1)CC2` (centres undefined): 163 °C.
Next, `COc1ccc(C(=O)C2C(Cl)=CC=CC2(C)Cl)c(OC(=O)Cc2ccccc2)c1OC` (centres undefined): 106 °C.
Compound `CC(=O)OCC(COCn1cnc2c(=O)[nH]c(N)nc21)OC(C)=O` (centres undefined) displayed a melting point of 222 to 224 °C.
Next, `O=C(c1ccc(-c2ccc(O)cc2)cc1)C1CC=CC1`: 153 to 155 °C; `COCCOc1cc2ncnc(NC3=CC(=O)C(Oc4ccccc4C)=CC3=O)c2cc1OC`: 134 to 137 °C.
On to `CCOC(=O)C1=C(C)Nc2ccn(C)c(=O)c2C1c1ccccc1OC` (centres undefined), for which the melting point came out at 225 °C.
As for `O=C(NCCCn1ncnn1)c1ccccc1NS(=O)(=O)c1cccc(C(F)(F)F)c1`, the figure is 67 to 69 °C; as for `CCc1cc(C#N)c(=O)[nH]c1COCc1ccccc1`, 141 to 143 °C.
Next, `CC(C)(C)OC(=O)N1CCN(c2ccc(N=C(N)c3cccs3)cc2)CC1`: 164 °C; `CN(C)CC(=O)Nc1cccc(-c2cc(-c3ccccc3O)nc(NC(=O)c3cccs3)c2C#N)c1`: 220 to 221 °C; `COCCc1nc2c(N)nc3c(c2n1CCCNC(=O)N1CCOCC1)CCCC3`: 172 to 173 °C.
`CN1C(=O)C2=C(c3ccc(Br)cc3)N(c3ccccc3)C(=O)C2=C1c1ccccc1` showed a melting point of 255 to 256 °C.
As for `CC(=O)Nc1c(N(C)C)cnn(C)c1=O`, the figure is 123 to 124 °C.
On to `O=C1N(Cc2ccc(N3CCOCC3)nc2)c2ccccc2C12COc1cc3c(cc12)OCCO3` (centres undefined), for which the melting point was 117 to 119 °C.
Turning to `CN1CCN(c2cc(Cl)cc3c2c(=O)n(Cc2ccc(O)cc2)c(=O)n3Cc2ccccc2)CC1`, the melting point was in the range of 138 to 140 °C.
For the compound `COc1ccc2c(c1)c(Cc1csc(-c3ccncc3)n1)c(C)n2C(=O)c1ccc(Cl)cc1`, the melting point lay within 109 to 114 °C.
As for `CC(C)CC1CCCCc2c1oc(=O)c(C(c1ccccc1)C1CC1)c2O` (centres undefined), the figure is 164 to 167 °C; as for `CSC1=NC2=NC3=C(CSCC3=O)CN2N1`, 295 to 297 °C.
Compound `Nc1ccc2c(=O)n3c(nc2c1)C(=Cc1ccc(O)c(O)c1)CC3` registered a melting point of 263 to 265 °C.
As for `Cc1noc(-c2c(C)ncn2C)n1`, the figure is 95 °C; as for `CCOC(=O)C(CCC(=O)O)(CCC(=O)O)C(=O)OCC`, 120 °C; as for `Cc1cc(C)c(Nc2nc(Nc3ccc(C#N)cc3)ncc2-c2ccccc2)c(C)c1`, 209 to 214 °C.
As for `COC(C)=CC(=O)NC1CCCCCCC1`, the figure is 116 °C; as for `N#Cc1c(Br)cc(Br)c(CCC(=O)O)c1Br`, 164 to 166 °C.
Next, `COc1cccc2c1C(O)CC21CCN(CCCC(=O)c2ccc(F)cc2)C1` (centres undefined): 152 to 154 °C; `COc1ccc([C@@H]2CC(=O)N3C(=O)CC[C@H]23)cc1` (relative stereo): 125 to 127 °C; `Cc1ccc2c(c1)C(c1ccncc1)CC2(O)c1ccc(F)cc1` (centres undefined): 187 to 192 °C.
Consider `CCOC(=O)CC(=O)c1cc(F)c(F)c(C)c1F`, for which the melting point lay in the range of 38 to 39 °C.
With `COc1cc(N(C)C)c(Cl)cc1C(=O)NC1CCN(Cc2ccc(Cl)cc2)C1` (centres undefined), the melting point was in the range of 172 to 173 °C.
For `Nc1ccc(S(=O)(=O)Nc2nnc(S(N)(=O)=O)s2)cc1`, the melting point lay within 241 to 242 °C.
Regarding `CCN(CC)Cc1cc(Nc2snc3ccccc23)ccc1O`, the melting point was in the range of 164 to 165 °C.
On to `Cc1cc(C)c(C(O)c2ccc(-n3ccnc3)c(Cl)c2)c(C)c1` (centres undefined), for which the melting point is 156 to 157 °C.
As for `N#Cc1c(N)oc2ccccc2c1=O`, the figure is 315 to 320 °C.
Next, `CC(c1ccc(-c2ccccc2)c(F)c1)c1csc(NS(C)(=O)=O)n1` (centres undefined): 128 to 129 °C.
Next, `COc1cc(Cl)c(N)cc1C(=O)NCC1CCCO1` (centres undefined): 109 to 110 °C.
`COC(=O)c1ccc(CNC(=NC#N)NCCNC(=O)c2nc(Cl)c(N)nc2N)cc1` registered a melting point of 190 to 195 °C.
As for `NC(=S)c1ncn2c1[C@@H]1CCCN1C(=O)c1c(Cl)cccc1-2`, the figure is 247 to 248 °C; as for `COc1cc2c(cc1O)CCN(Cc1cccc(C)c1)C2`, 128 to 129 °C.
